The source of these data is US10722520B2, “Heterocyclic compounds and their use in preventing or treating bacterial infections” (MUTABILIS, priority 2016, dated 2020).

Test [1] concerns E. coli UFR39. In words: MIC of compound alone, broth microdilution. The conditions noted are these: Escherichia coli, UFR39, read-out: MIC CAZ alone. Format: cell-based. An outline of the steps: (§1)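 Exponential-phase inoculum, 5×10^5 cfu/mL final, in cation-supplemented MHB; 35° C in air for 16-20 h. MIC: lowest concentration giving no visible growth.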
In test [2] the test system is E. cloacae P99. As to the kind of experiment: MIC of compound alone, broth microdilution. The format is cell-based. Conditions: strain P99; compound alone. Summed up:
as §1
On the technique in general: In broth dilution the organism is exposed to a series of concentrations in liquid medium.

Test [3] deals with E. coli 190317. As to the kind of experiment: MIC of compound alone, broth microdilution. The conditions noted are these: strain 190317; compound alone. The format is cell-based. An outline of the steps: as §1
The subject of test [4] is K. pneumoniae 6299. In words: MIC of compound alone, broth microdilution. Format: cell-based. Conditions: strain 6299; compound alone. An outline of the steps: as §1
Test [5] relates to K. pneumoniae BAA-1898. As to the kind of experiment: MIC of compound alone, broth microdilution. The conditions noted are these: strain BAA-1898; compound alone. Format: cell-based. An outline of the steps: as §1
Test [6] concerns P. aeruginosa CIP107051. In words: MIC of compound alone, broth microdilution. Format: cell-based. Conditions: strain CIP107051; compound alone. Summed up: as §1
Test [7] deals with E. cloacae P99. In words: MIC of ceftazidime (CAZ) at fixed concentration of compound (synergy), broth microdilution. Format: cell-based. Conditions: strain P99; MIC of CAZ, compound fixed at 4 μg/mL. Summed up: as §1
The test system of test [8] is E. coli 190317. The test is described as above. The format is cell-based. Conditions: strain 190317; MIC of CAZ, compound fixed at 4 μg/mL. An outline of the steps:
as §1

The subject of test [9] is K. pneumoniae 6299. The description is as above. Format: cell-based. Conditions: strain 6299; MIC of CAZ, compound fixed at 4 μg/mL. Summed up: as §1
Test [10] concerns K. pneumoniae BAA-1898. Described as above. The format is cell-based. Conditions: strain BAA-1898; MIC of CAZ, compound fixed at 4 μg/mL. Summed up: as §1
Test [11] deals with P. aeruginosa CIP107051. The description is as above. Conditions: strain CIP107051; MIC of CAZ, compound fixed at 4 μg/mL. Format: cell-based. Summed up: as §1
The target of test [12] is AmpC (P99) (Enterobacter cloacae, UniProt P05364). The conditions noted are these: read-out: IC50 β-lactamase AmpC (P99); class (C); nitrocefin 200 μM, 30-min pre-incubation, enzyme 0.2 nM.
Test [13] addresses CMY-37 (Citrobacter freundii, UniProt P05193). The conditions noted are these: read-out: IC50 β-lactamase CMY-37; class (C); nitrocefin 200 μM, 30-min pre-incubation, enzyme 0.2 nM.
In test [14] the target is AmpC (PAE) (Pseudomonas aeruginosa, UniProt P24735). Conditions: read-out: IC50 β-lactamase AmpC (PAE); class (C); nitrocefin 200 μM, 30-min pre-incubation, enzyme 0.4 nM.
Test [15] deals with OXA-15 (Pseudomonas aeruginosa, UniProt Q51574). Conditions: read-out: IC50 β-lactamase OXA-15; class (D); nitrocefin 200 μM, 30-min pre-incubation, enzyme 0.4 nM.
Test [16] deals with TEM-1 (Escherichia coli, UniProt P62593). Conditions: read-out: IC50 β-lactamase TEM-1; class (A); nitrocefin 200 μM, 30-min pre-incubation, enzyme 0.1 nM.
Test [17] has as its target SHV-1 (Klebsiella pneumoniae, UniProt P0AD64). Conditions: read-out: IC50 β-lactamase SHV-1; class (A); nitrocefin 200 μM, 30-min pre-incubation, enzyme 0.075 nM.
Test [18] has as its target CTX-M-15 (Escherichia coli, UniProt Q9EXV5). The conditions noted are these: read-out: IC50 β-lactamase CTX-M-15; class (A); nitrocefin 200 μM, 30-min pre-incubation, enzyme 0.4 nM.
Test [19] concerns the target KPC-2 (Klebsiella pneumoniae, UniProt Q9F663). Conditions: read-out: IC50 β-lactamase KPC-2; class (A); nitrocefin 200 μM, 30-min pre-incubation, enzyme 1 nM.
The target in test [20] is OXA-1 (Escherichia coli, UniProt P13661). Conditions: read-out: IC50 β-lactamase OXA-1; class (D); nitrocefin 200 μM, 30-min pre-incubation, enzyme 0.2 nM.
Test [21] deals with OXA-11 (Pseudomonas aeruginosa, UniProt Q06778). The conditions noted are these: read-out: IC50 β-lactamase OXA-11; class (D); nitrocefin 200 μM, 30-min pre-incubation, enzyme 1.2 nM.
Test [22] concerns the target OXA-48 (Klebsiella pneumoniae, UniProt Q6XEC0). Conditions: read-out: IC50 β-lactamase OXA-48; class (D); nitrocefin 200 μM, 30-min pre-incubation, enzyme 0.3 nM.

Each structure is given as a SMILES string.

Regarding `CC(C)(O/N=C(\C(=O)N[C@@H]1C(=O)N2C(C(=O)[O-])=C(C[n+]3ccccc3)CS[C@H]12)c1csc(N)n1)C(=O)O` [CAZ, ceftazidime, reference compound], in [1], the MIC (usually the lowest concentration that inhibits growth of the organism) was over 1020 µg/mL.
Take `CN(C)C.NC(=O)CCc1nccn1C1=CC2CN(C1)C(=O)N2OS(=O)(=O)O` (stereo not shown) [Example 73, trimethylammonium [3-[2-(3-amino-3-oxo-propyl)imidazol-1-yl]-7-oxo-1,6-diazabicyclo[3.2.1]oct-3-en-6-yl]sulfate]: the “MIC compounds of the invention alone” value in test [2], in test [3], in test [4], in [5] and in test [6] was over 32 µg/mL each time. In addition, the “MIC combination of CAZ and compounds of the invention at 4 μg/mL” value (shortened to “MIC combination”) in test [7] worked out at 4 µg/mL; in test [8], 0.5 µg/mL; in [9] it was 4 µg/mL; in test [10], 1 µg/mL; in test [11] it was 8 µg/mL. For the same molecule, the half-maximal inhibitory concentration (IC50) (usually the concentration that inhibits the measured activity by half) stood at 92 nM in test [12]; 86 nM in test [13]; 250 nM in test [14]; 270 nM in test [15]; 1.9 nM in test [16]; 9.8 nM in test [17]. Also, the concentration for half-maximal inhibition (IC50) in test [18] came out at 4.4 nM; in test [19], 78 nM; in test [20], 44 nM; in test [21], 87 nM; in test [22] it was 3.7 nM.
For `O=C1N2CC(n3cc(S(=O)(=O)NCCO)cn3)=CC(C2)N1OS(=O)(=O)[O-].[Na+]` (stereo not shown) [Example 74, sodium [3-[4-(2-hydroxyethylsulfamoyl)pyrazol-1-yl]-7-oxo-1,6-diazabicyclo[3.2.1]oct-3-en-6-yl]sulfate], the “MIC compounds of the invention alone” value is 16 µg/mL in [2]; 8 µg/mL in test [3]; 16 µg/mL in test [4]; 16 µg/mL in [5]; over 32 µg/mL in test [6]. In addition, the “MIC combination” value in test [7] was 0.5 µg/mL; in test [8], at most 0.25 µg/mL; in test [9], at most 0.25 µg/mL; in test [10] it was 0.25 µg/mL; in test [11] it was 8 µg/mL. Besides, the IC50 in [12] was 9.5 nM; in test [13], 25 nM; in test [14], 110 nM; in test [15] it was 48 nM; in test [16] it was 0.34 nM; in test [17], 2.2 nM. In addition, the 50% inhibitory concentration (IC50) in [18] was found to be 1.1 nM; in [19], 3 nM; in [20], 22 nM; in test [21], 20 nM; in test [22] it was 2.9 nM.
Consider `O=C1N2CC(n3ccc(-c4ncco4)n3)=CC(C2)N1OS(=O)(=O)[O-].[Na+]` (stereo not shown) [Example 78], for which the “MIC compounds of the invention alone” value in test [2], in test [3], in test [4], in test [5] and in [6] was over 32 µg/mL in each case. For the same molecule, the “MIC combination” value came to 8 µg/mL in test [7]; 0.5 µg/mL in [8]; 2 µg/mL in test [9]; 16 µg/mL in test [10]; 8 µg/mL in test [11]. In addition, the concentration for half-maximal inhibition (IC50) in test [12] stood at 14 nM; in test [13], 29 nM; in [14] it was 250 nM; in test [15], 24 nM; in test [16], 0.37 nM; in test [17], 1.5 nM. Further, the IC50 was found to be 0.46 nM in [18]; 2.7 nM in [19]; 64 nM in test [20]; 6.5 nM in [21]; 3 nM in [22].
